In patent US8324395B2, “Heterocyclic compound and use thereof” (Takeda Pharmaceutical Company Limited, priority 2007, dated 2012):
pIC50: −log10 of the molar value.

Legend:
BRAF (V600E) kinase = target: T1, BRAF (V600E) kinase (Homo sapiens, UniProt P15056, V600E); experiment: Determination of BRAF (V600E) kinase inhibitory activity; format: biochemical; conditions: 1.0 μM test compound; BRAF (V600E) enzyme, GST-MEK1 (K96R) substrate, [γ-32P]ATP; read-out: Inhibitory rate (%) at 1.0 μM
T1 construct: Flag (N); made in house; host or cells: SF-21 insect cells, recombinant baculovirus BAC-V600E
T1 sequence (P15056 457-717 V600E limits assumed): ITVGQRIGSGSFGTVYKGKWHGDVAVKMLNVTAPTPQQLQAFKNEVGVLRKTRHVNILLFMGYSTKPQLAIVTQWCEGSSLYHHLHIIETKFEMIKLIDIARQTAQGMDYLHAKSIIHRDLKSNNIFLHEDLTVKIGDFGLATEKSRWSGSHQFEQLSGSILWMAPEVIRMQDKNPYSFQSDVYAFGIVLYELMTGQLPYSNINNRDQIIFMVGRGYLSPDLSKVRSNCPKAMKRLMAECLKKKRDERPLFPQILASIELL
Experimental: Human BRAF gene was cloned by PCR using human Testis cDNA library (Clontech) as a template. The primer used for PCR was prepared from base sequence (Genbank Accession No.: NM_004333) information of BRAF gene by adding a base sequence encoding flag peptide and a recognition sequence of the restriction enzyme to area encoding the BRAF kinase domain region, so that the protein contains an N-terminal. Flag. The primer base sequence is shown below.
The PCR reaction was conducted using Pyrobest (Takara Shuzo Co., Ltd). The obtained PCR product was electrophoresed on agarose gel (1%), the DNA fragment amplified by PCR was recovered from the gel, and then digested with restriction enzymes EcoRI and SalI. The DNA treated with the restriction enzymes was electrophoresed on agarose gel (1%), and the obtained DNA fragment was recovered. The recovered DNA fragment was ligated to plasmid pFASTBAC1 (Invitrogen) digested with restriction enzymes EcoRI and SalI to give expression plasmid pFB-BRAF, and the base sequence of the insert fragment was confirmed. In addition, mutation was introduced into V600E using a Quick change Site Directed Mutagenesis kit (Stratagene). The base sequences of the primers used are shown in the following.
The obtained plasmid was sequenced to confirm the introduction of mutation into V600E. The DNA was digested with restriction enzymes EcoRI and SalI, DNA treated with the restriction enzymes was electrophoresed on agarose gel (1%), and the obtained DNA fragment was recovered. The recovered DNA fragment was ligated to plasmid pFASTBAC1 (Invitrogen) digested with restriction enzymes EcoRI and SalI to give expression plasmid pFB-V600E.
Using BAC-TO-BAC Baculovirus Expression System (Invitrogen), virus stock BAC-V600E of recombinant baculovirus was prepared.
SF-21 cells were sown at 1×10^6 cells/mL to Sf-900II SFM medium (1 L, Invitrogen) containing 10% fetal bovine serum (Trace), 50 mg/L Gentamicin (Invitrogen) and 0.1% Pluronic F-68 (Invitrogen), and shaking culture was performed using a 2 L volume Erlenmeyer flask at 27° C., 100 rpm. After culturing for 24 hr, recombinant baculovirus BAC-V600E (13.4 mL) was added to the mixture, and the mixture was further cultured for 3 days. The culture medium was centrifuged at 2,000 rpm for 5 min to give virus-infected cells. The infected cells were washed with a phosphate buffered saline (Invitrogen), centrifuged under the same conditions, and the cells were preserved at −80° C. The cryopreserved cells were thawed in ice, suspended in buffer A (50 mM Tris buffer (30 mL, pH 7.4) containing 20% glycerol, 0.15 M NaCl) supplemented with Complete Protease Inhibitor (Boehringer), and ruptured 3 times with a Polytron homogenizer (Kinematica) at 20,000 rpm for 30 sec. The ruptured medium was clarified by centrifugation at 40,000 rpm for 30 min and filtered with a 0.45 μm filter. The filtrate was passed through a column packed with Anti-FLAG M2 Affinity Gel (4 mL, Sigma) at a flow rate of about 0.5 mL/min. The column was washed with buffer A, and eluted with buffer A containing 100 μg/mL of FLAG peptide. The buffer of this eluate was exchanged using NAP25 column (Amersham Bioscience) equilibrated with buffer A and the fractions were cryopreserved at −80° C.
A test compound (2.5 μL) dissolved in dimethyl sulfoxide (DMSO) was added to 37.5 μL of a reaction mixture (25 mM HEPES (pH 7.5), 10 mM magnesium acetate, 1 mM dithiothreitol) containing BRAF (V600E) enzyme (30 ng) and recombinant type protein GST-MEK1 (K96R) 250 ng, and the mixture was incubated at room temperature for 10 min. ATP solution (10 μL, 2.5 μM ATP, 0.1 μCi [γ-^32P]ATP) was added to the obtained mixture, and the mixture was reacted at room temperature for 20 min. The reaction was quenched by adding 50 μL of ice-cooled. 20% trichloroacetic acid (Wako Pure Chemical Industries, Ltd.) to the reaction mixture. […]

[1] = test system: human colon cancer cell HT-29; experiment: Colon cancer cell HT-29 growth suppressive action in vitro; format: cell-based; conditions: 72 h, HT-29 cells, 3 days culture, SRB staining of cell protein
Experimental: A cell suspension (100 μL, 3,000 cells/well) of human colon cancer cell HT-29 (purchased from ATCC) was plated in a 96-well plate, and the cells were cultured at 37° C. in a 5% carbon dioxide gas incubator. The next day, 2-fold serial dilution of each test compound solution (diluted from maximum concentration 20 μM) (100 μL) was added, and the cells were cultured for 3 days. The culture medium containing the test compound was removed, and the cells were washed with phosphate buffer (PBS). A 50% trichloroacetic acid solution was added to the final concentration of 10% (v/v), and the mixture was stood overnight at 4° C., whereby the cells were fixed to the plate. Then, a dye SRB 0.4% (w/v) solution (dissolved in 1% acetic acid) was added at 50 μl/well, whereby the cell protein was fixed and stained (Skehan et al., Journal Of National Cancer Institute, vol. 82, pp. 1107-1112, 1990). The cells were washed 3 times with 1% acetic acid solution (200 μL/well), and 100 μL of an extract (10 mM Tris buffer) was added to extract the dye. The absorbance at an absorption wavelength […] was measured, and cell amount was measured as a protein amount. Taking the protein amount of the control group free of the test compound solution as 100%, the proportion of the residual protein amount of each treatment group was determined and the concentration of the compound necessary for suppressing the residual cell amount to 50% of the control (IC50 value) was calculated.

| inhibition at 1 µM (BRAF (V600E) kinase) | pIC50 [1] | SMILES |
| --- | --- | --- |
| 100% | > 6.30 | CC(C)(C#N)c1cccc(C(=O)Nc2cccc(Oc3ccc4nc(NC(=O)C5CC5)sc4c3)c2)c1 [Example A12, 3-(1-cyano-1-methylethyl)-N-[3-({2-[(cyclopropylcarbonyl)amino]-1,3-benzothiazol-6-yl}oxy)phenyl]benzamide] |
| – | > 6.30 | CN1CCN(CC(=O)Nc2nc3ccc(Oc4cccc(NC(=O)c5cccc(C(C)(C)C#N)c5)c4)cc3s2)CC1 [Example A13, 3-(1-cyano-1-methylethyl)-N-{3-[(2-{[(4-methylpiperazin-1-yl)acetyl]amino}-1,3-benzothiazol-6-yl)oxy]phenyl}benzamide] |
| – | > 6.30 | CC(=O)Nc1nc2ccc(Oc3cccc(NC(=O)c4cccc(C(C)(C)C#N)c4Cl)c3)cc2s1 [Example A41, N-(3-{[2-(acetylamino)-1,3-benzothiazol-6-yl]oxy}phenyl)-2-chloro-3-(1-cyano-1-methylethyl)benzamide] |
| – | > 6.30 | O=C(Nc1cccc(Oc2ccc3nc(NC(=O)C4CC4)sc3c2)c1)c1cccc(C(F)(F)F)c1 [Example A2, N-[3-({2-[(cyclopropylcarbonyl)amino]-1,3-benzothiazol-6-yl}oxy)phenyl]-3-(trifluoromethyl)benzamide] |
